Laboratory results taken from ChEMBL document CHEMBL1158202, “Plakortides, novel cyclic peroxides from the sponge Plakortis halichondrioides: activators of cardiac SR-CA(2+)-pumping ATPase” (J Nat Prod, 1996).
The source made the active and inactive calls. The calls are words filed in the database; no cut-off is given here.

Organism: Canis lupus familiaris
Assay: Induction of Ca2+ uptake in sarcoplasmic reticular-vesicle isolated from dog cardiac ventricle at 10 to 100 uM by fluorimetric method
Assay type: functional, tissue-based

Row | SMILES | Activity
1 | CC/C=C/C(CC)CCC[C@@]1(CC)C[C@H](CC)[C@H](CC(=O)OC)OO1 (some centres undefined) | Active
2 | CC/C=C/C(CC)CCC[C@]1(CC)C[C@H](CC)[C@H](CC(=O)OC)OO1 (some centres undefined) | Active
3 | CC/C=C/C(CC)C[C@@]1(C)C[C@@H](CC)[C@H](CC(=O)OC)OO1 (some centres undefined) | Active
4 | CC/C=C/C(CC)C/C(C)=C/[C@]1(CC)C[C@H](CC)[C@H](CC(=O)OC)OO1 (some centres undefined) | Active
